Experimental data as given in patent US20170119742A1, “MEDICAMENT FOR PREVENTING AND/OR TREATING STRESS DISEASES” (ONO PHARMACEUTICAL CO., LTD., priority 2014, published 2017).

How the values were obtained:
brain TSPO = molecular target: T1, brain TSPO (Rattus norvegicus, UniProt P16257); assay: Ex vivo brain TSPO occupancy in rats, [3H] PK11195 radiotracer (Biological example 1); conditions: for receptor occupancy at 0.1 mg/kg / receptor occupancy at 0.3 mg/kg / receptor occupancy at 1 mg/kg / receptor occupancy at 3 mg/kg: rat, po, [3H] PK11195; for receptor occupancy at 0.1 mg/kg: 0.1 mg/kg oral; for receptor occupancy at 0.3 mg/kg: 0.3 mg/kg oral; for receptor occupancy at 1 mg/kg: 1 mg/kg oral; for receptor occupancy at 3 mg/kg: 3 mg/kg oral
T1 construct: measured by using brain (cerebral cortex and hippocampus) homogenates of the vehicle treated group and the compound of the present invention treated group; from tissue; host or cells: Wistar rat brain (cerebral cortex, hippocampus) homogenate
Procedure: Male Sic: Wistar rats (Japan SLC, Inc., at the time of use: 11 weeks old) was exposed to physical and mental stressors (Journal of Pharmacological Science, Vol. 104, p. 263-273, 2007). The vehicle (0.5 w/v % methylcellulose 400 cP solution) or the compound of the present invention (0.1, 0.3, 1 and 3 mg/kg) was orally administered. Two hours after the administration, the stressor load was started by putting the rat in a restraint stress cage (Natsume Seisakusho Co., Ltd.). The antistress effect was evaluated by measuring the stool weight which was excreted during the stressor load of 1 hour (n=12 in each group).
Next, brain TSPO occupancy of the compound of the present invention was measured by using brain (cerebral cortex and hippocampus) homogenates of the vehicle treated group and the compound of the present invention treated group, using [^3H] PK11195 as a radiotracer. PK11195 was dissolved in dimethyl sulfoxide (DMSO) to prepare a 4 mmol/L solution. After preparing an ethanol solution of 100 nmol/L [^3H] PK11195 (PerkinElmer, Inc.), the solution was diluted 50-fold with 50 mmol/L HEPES buffer (Sigma-Aldrich Co.). In the case of determining the total binding amount of the radiotracer, 50 mmol/L HEPES (99 μL) and DMSO (1 μL) were added to Nunc MiniSorp (trade name, 12×75 mm, Thermo Fisher Scientific Inc.). In the case of determining the nonspecific binding amount of the radiotracer, 4 mmol/L PK11195 (1 μL) was substituted for DMSO (1 μL). The brain homogenate (50 μL) derived from cerebral cortex or the hippocampus was added to the tube. Then [^3H] PK11195 (50 μL) (cerebral cortex: final concentration 0.4532 nmol/L, hippocampus: final concentration 0.4520 nmol/L) was added and stirred, and the mixture was incubated for 90 minutes at 4° C. After completion of the reaction, ice-cold 50 mmol/L HEPES (2 mL) was added to the tube, and then the mixture was suction filtered on a glass fiber filter (GF/B, Brandel Inc.) which pretreated with 0.3 w/v % polyethyleneimine (Sigma-Aldrich Co.), to collect the brain homogenate. After drying the glass fiber filter, the absorbing part of the brain homogenate was transferred to a liquid scintillation vial. ACS-II scintillation cocktail (7 mL) was added to the liquid scintillation vial and stirred, and the radioactivity was measured by liquid scintillation counter (TRI-CARB2900TR, PerkinElmer Life and Analytical Sciences Inc.). Specific binding amount (dpm) of [3H] PK11195 in each brain homogenate was set to a value obtained by subtracting the nonspecific binding amount (dpm) from the total binding amount (dpm). TSPO occupancy (%) in cerebral cortex and hippocampus, of the compound of the present invention treated group, were calculated according to the following equation.
TSPO Occupancy (%)=(1−X/Y)×100
X: Specific binding amount (dpm) in each brain homogenate Y: Average value (dpm) of specific binding amount in control group

[1] = tested on: fear conditioning stress rats; assay: Antianxiety effect (1): freezing time in fear conditioning stress rats; format: in vivo; conditions: rat, 1 and 3 mg/kg oral, 2 h before 30 min stress load, Dunnett test
Text: Male Crj: CD (SD) rats (Charles River Laboratories Japan, Inc., at the time of evaluation: 8 weeks old) were used to load conditioned fear stress in accordance with Funatsu et al. method (European Journal of Pharmacology, Vol. 573, p. 190-195, 2007). The day before of fear conditioning, the rat was put in an electric shock device which was placed in a soundproof box to acclimate to the evaluation environment. The day of fear conditioning, the rat was put in the electric shock device. The conditioning, 5 seconds electric current load (2.0 mA) and light irradiation (3 pieces of 40 W fluorescent bulbs) followed by 3 seconds warning sound (60 to 70 db), was carried out a total 15 times at 1 minute intervals. The rat of the non-stressed group was given a warning sound and light irradiation without performing the electric current load during fear conditioning. The day after the fear conditioning, the vehicle (0.5 w/v % methylcellulose 400 cP solution) or the compound of the present invention (0.3, 1 or 3 mg/kg) was orally administered to the rat. Two hours after the administration, the rat was put in the electric shock device. […] The behavior of the rat was photographed with a video camera during the 30 minutes of stress load and freezing time was measured.

[2] = tested on: female diarrhea-type IBS patients; assay: HAM-A (Hamilton Anxiety Scale) in the clinical trial of Biological example 10; format: in vivo, human; conditions: 60 mg treatment
Procedure: In the clinical trial of Biological example 10, the therapeutic effect of the compound of the present invention 60 mg treatment on depression and anxiety-related diseases were evaluated using PSS (Perceived Stress Scale) (refer to Journal of Health and Social Behavior, 24, 386-396, 1983), HAM-A (Hamilton Anxiety Scale) (refer to The British journal of medical psychology, 32, 50-55, 1959) and HAM-D (Hamilton Depression scale) (refer to Journal of Neurology, Neurosurgery and Psychiatry, 23, 56-62, 1960) as rating scales.

COc1cc(Cl)ccc1[C@H]1c2[nH]c3cccc(F)c3c2C2(CC2)CN1C(C)=O [the compound of the present invention, (1S)-2-acetyl-1-(4-chloro-2-methoxyphenyl)-5-fluoro-1,2,3,9-tetrahydrospiro[β-carboline-4,1′-cyclopropane]]
receptor occupancy at 0.1 mg/kg (brain TSPO; rat cerebral cortex): 11.8%
receptor occupancy at 0.3 mg/kg (brain TSPO; rat cerebral cortex): 47.7%
receptor occupancy at 1 mg/kg (brain TSPO; rat cerebral cortex): 83.8%
receptor occupancy at 3 mg/kg (brain TSPO; rat cerebral cortex): 94.5%
receptor occupancy at 0.1 mg/kg (brain TSPO; rat hippocampus): 25.7%
receptor occupancy at 0.3 mg/kg (brain TSPO; rat hippocampus): 50.7%
receptor occupancy at 1 mg/kg (brain TSPO; rat hippocampus): 86.3%
receptor occupancy at 3 mg/kg (brain TSPO; rat hippocampus): 95.1%
brain TSPO occupancy required to exert antistress, antidepressant and antianxiety effect (brain TSPO; rats, achieved by 0.3 to 3 mg/kg, from Biological examples 1 to 4): ≥ 50%
freezing time vs. vehicle control group [1]: shortened this extended freezing time significantly
HAM-A score, 4th week ([2]; Patient A, baseline 18): 4
HAM-A score, Amount of change from baseline ([2]; Patient A, baseline 18, 4th week): −14
HAM-A score, 4th week ([2]; Patient B, baseline 23): 1
HAM-A score, Amount of change from baseline ([2]; Patient B, baseline 23, 4th week): −22
HAM-A score, 4th week ([2]; Patient D, baseline 22): 4
HAM-A score, Amount of change from baseline ([2]; Patient D, baseline 22, 4th week): −18
HAM-A score, 4th week ([2]; Patient E, baseline 18): 5
HAM-A score, Amount of change from baseline ([2]; Patient E, baseline 18, 4th week): −13
